Publication PMC8074287, “Analgesic and Anticancer Activity of Benzoxazole Clubbed 2-Pyrrolidinones as Novel Inhibitors of Monoacylglycerol Lipase” (Molecules, 2021)
Read-outs that look alike come from different tables or passages of the source.

Columns and labels:
[1] = test system: FAAH; set-up: method as in PMID 15456244; conditions: read-out: FAAH IC50, value reported; cited from earlier work
[2] = molecular target: T1, hMAGL (Homo sapiens, UniProt Q99685); assay: Human MAGL inhibition assay (Cayman's assay kit)
T1 sequence (Q99685 1-303): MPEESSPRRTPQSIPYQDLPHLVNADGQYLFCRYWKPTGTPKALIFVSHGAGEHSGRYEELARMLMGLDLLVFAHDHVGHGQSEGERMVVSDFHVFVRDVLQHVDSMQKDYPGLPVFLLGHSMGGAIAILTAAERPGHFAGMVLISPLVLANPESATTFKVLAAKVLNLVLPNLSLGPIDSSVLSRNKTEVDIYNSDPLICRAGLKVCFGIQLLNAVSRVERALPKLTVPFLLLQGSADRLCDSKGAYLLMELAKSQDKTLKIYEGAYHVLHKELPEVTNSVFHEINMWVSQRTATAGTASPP

[3] = molecular target: T2, hFAAH (Homo sapiens, UniProt O00519); assay: Human FAAH inhibition assay (Cayman's assay kit); conditions: IC50, mean ± SEM (n = 3)
T2 sequence (O00519 1-579): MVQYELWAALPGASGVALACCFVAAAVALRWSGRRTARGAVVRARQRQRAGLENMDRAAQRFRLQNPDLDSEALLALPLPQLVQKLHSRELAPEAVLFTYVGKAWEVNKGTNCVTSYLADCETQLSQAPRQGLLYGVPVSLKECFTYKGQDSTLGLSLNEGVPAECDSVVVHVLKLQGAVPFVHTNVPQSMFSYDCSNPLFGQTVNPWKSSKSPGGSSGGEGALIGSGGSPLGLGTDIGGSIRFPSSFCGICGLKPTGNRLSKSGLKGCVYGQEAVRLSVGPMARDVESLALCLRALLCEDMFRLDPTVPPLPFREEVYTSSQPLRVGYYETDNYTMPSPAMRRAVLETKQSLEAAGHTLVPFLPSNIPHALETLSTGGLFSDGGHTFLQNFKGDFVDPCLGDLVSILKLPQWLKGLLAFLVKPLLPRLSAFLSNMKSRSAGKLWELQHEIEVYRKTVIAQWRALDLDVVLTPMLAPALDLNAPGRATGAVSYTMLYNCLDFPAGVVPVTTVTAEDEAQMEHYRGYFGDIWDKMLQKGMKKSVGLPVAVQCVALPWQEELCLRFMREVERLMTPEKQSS

[4] = test system: MAGL; conditions: cited from earlier work
[5] = test system: formalin-induced nociception; assay: Formalin-induced analgesic (nociception) test; format: in vivo, Male Wistar rats; conditions: 100 mg/kg i.p., 30 min before formalin
From the text: The formalin-induced analgesic test is an extensively acknowledged animal nociception model. In order to evaluate both central and peripheral effects of the compound (20), formalin-induced nociception model was selected for analgesic activity. The formalin induced behavioral response comprises two typical phases, stage I and II. Stage I persists up to five minutes after formalin injection and is characterized by acute pain with vigorous licking and biting of the injected site. Stage I consists the action formalin on afferent C-fiber nociceptors. While Stage II starts 10–30 min after formalin injection and persists till 60 min, characterized by periodic licking and biting of the injected site. Stage II imitates the action of central sensitization of the spinal dorsal horn neurons.
Figure 5 Formalin-induced analgesic test; a dose of the test compound 20 (5, 10, 30, and 50 mg/kg, p.o, suspended in 0.5% CMC) was administered 4 h before formalin injection (50 µL, 2.5%). Reference drug, gabapentin (100 mg/kg, i.p, dissolved in 0.9% normal saline) was injected 30 min before formalin injection. Total paw licking and biting duration, Stage I (white bar, 0–5 min) and stage II (black bar, 10–30 min) was recorded as a measure of pain behavior. Data is represented as mean ± SEM from a group of 10 animals. * p < 0.05, ** p < 0.01, p > 0.05 (NS, nonsignificant) vs. control (vehicle). GBP: Gabapentin; D5, D10, D30, andD50 are the dose concentrations of test compound 20.
Male Wistar rats (180–200 g) were obtained with the permission of IAEC (proposal number 1048) from Jamia Hamdard, New Delhi, India. The results of test compound 20 and reference drug, Gabapentin (GBP), were statistically compared with the control group.

[6] = earlier work of the authors' group

| Compound | melting point [°C] | IC50 [2] [nM] | IC50 [4] [nM] | further results |
| --- | --- | --- | --- | --- |
| NC(=O)c1cccc(-c2cccc(OC(=O)NC3CCCCC3)c2)c1 [URB597] | – | – | – | IC50 [1]: 4.6 nM |
| O=C1CC(c2nc3ccccc3o2)CN1c1ccc(F)c(Cl)c1 (centres unmarked) [Compound 16, 4-(Benzo[d]oxazol-2-yl)-1-(3-chloro-4-fluorophenyl)pyrrolidin-2-one] | 187 to 189 | 34 ± 1.7 | – | IC50 [3]: 25000 ± 2300 nM |
| O=C(Cn1nnc2ccccc21)Nc1ccc(-c2nc3ccccc3s2)cc1 [ZINC24092691 analogue] | – | – | – | IC50 [4, 6]: 6.5 nM |
| CCCCNC(=O)Oc1ccc(C2=NCCS2)cc1 [SPB01403] | – | – | 31000 | – |
| O=C(O[C@H](CO)C(F)(F)F)N1C[C@@H]2C(c3ccn(-c4ccc(F)cc4)n3)[C@@H]2C1 (some centres unmarked) [PF-06795071] | – | – | 3 | – |
| O=C(OC(C(F)(F)F)C(F)(F)F)N1CCC(C(O)(c2ccc3c(c2)OCO3)c2ccc3c(c2)OCO3)CC1 [KML29] | – | – | 3.6 | selectivity for MAGL over FAAH [4]: more than 10,000 fold |
| O=C1CC(c2nc3ccccc3o2)CN1Cc1ccccc1 (centres unmarked) [Compound 11, 4-(Benzo[d]oxazol-2-yl)-1-benzylpyrrolidin-2-one] | 160 to 162 | > 100000 | – | – |
| O=C1CC(c2nc3ccccc3o2)CN1c1ccc(Cl)cc1 (centres unmarked) [Compound 15, 4-(Benzo[d]oxazol-2-yl)-1-(4-chlorophenyl)pyrrolidin-2-one] | 174 to 176 | 65 ± 3.2 | – | IC50 [3]: 28000 ± 1800 nM |
| Cc1ccccc1N1CC(c2nc3ccccc3o2)CC1=O (centres unmarked) [Compound 13, 4-(Benzo[d]oxazol-2-yl)-1-(o-tolyl)pyrrolidin-2-one] | 162 to 164 | 85000 ± 1500 | – | – |
| Cc1ccc(N2CC(c3nc4ccccc4o3)CC2=O)cc1 (centres unmarked) [Compound 14, 4-(Benzo[d]oxazol-2-yl)-1-(p-tolyl)pyrrolidin-2-one] | 164 to 166 | 72000 ± 2100 | – | – |
| O=C(N1CCN(C(c2ccc(F)cc2)c2ccc(F)cc2)CC1)n1cncn1 [SAR629] | – | – | 1.1 | – |
| COc1nn(-c2ccc(NC(=O)OCc3ccccc3)c(C)c2)c(=O)o1 [CAY10499, reference compound] | – | – | 144 | IC50 ([2]; read-out: hMAGL, IC50, mean ± SEM (n = 3)): 415 ± 3.2 nM |
| COc1ccc(N2CC(c3nc4ccccc4o3)CC2=O)cc1 (centres unmarked) [Compound 18, 4-(Benzo[d]oxazol-2-yl)-1-(4-methoxyphenyl)pyrrolidin-2-one] | 177 to 179 | 42 ± 1.5 | – | IC50 [3]: 37000 ± 2200 nM |
| O=C(Nc1cccc(-c2ccccc2)c1)OC1CCCCC1 [URB602] | – | – | 28000 | – |
| O=C(Cn1nnc2ccccc21)Nc1ccc(-c2nc3ccccc3s2)cc1 [ZINC24092691] | – | – | – | IC50 [4, 6]: 10 nM |
| O=C(N1CCN(C(c2ccccc2)c2ccccc2)CC1)n1nnc2ccccc21 [ML30] | – | – | 0.54 | – |
| O=C1CC(c2nc3ccccc3o2)CN1c1ccc(O)cc1 (centres unmarked) [Compound 17, 4-(Benzo[d]oxazol-2-yl)-1-(4-hydroxyphenyl)pyrrolidin-2-one] | 242 to 245 | 62000 ± 2700 | – | – |
| Cc1ncccc1-c1cc(F)cc(N2C[C@H](N3CCN(c4ncccn4)CC3)CC2=O)c1 [R(3t)] | – | – | 3.6 | – |
| O=C1CC(c2nc3ccccc3o2)CN1c1ccccc1 (centres unmarked) [Compound 12, 4-(Benzo[d]oxazol-2-yl)-1-phenylpyrrolidin-2-one] | 148 to 150 | > 100000 | – | – |
| COc1ccc(N2CC(c3nc4ccccc4[nH]3)CC2=O)cc1 (centres unmarked) [compound 25] | – | – | – | IC50 [4, 6]: 9.4 nM |
| O=C(N1CCC(C(c2ccc3c(c2)OCO3)c2ccc3c(c2)OCO3)CC1)n1cncn1 [JJKK-048, {4-[bis-(benzo[d][1,3]dioxol-5-yl)methyl]-piperidin-1-yl}(1H-1,2,4-triazol-1-yl)methanone] | – | – | 0.363 | selectivity for MAGL over FAAH [4]: more than 10,000 fold |
| NCC1(CC(=O)O)CCCCC1 [GBP, Gabapentin, reference compound] | – | – | – | paw licking and biting, Stage II ([5]; vs control): significant reduction of paw licking and biting; analgesic effect, Stage I (acute nociception) ([5]; vs control (0.5% CMC)): little analgesic effects |
